From patent publication US5387671A, “Hexa- and heptapeptide anaphylatoxin-receptor ligands” (Abbott Laboratories, priority 1990, dated 1995)
Numbered stars: 1 amine (or outer) side, 2 acyl side, 3 side chain; on linkers, the order of the positions; unused ones are H or OH. Square brackets hold non-standard residues; d marks the D form. Peptide text beside a SMILES is read from it. * marks the point of attachment. X1 = N=C(N)NCCC[C@@H](NC[C@H](Cc1ccccc1)N*)C(=O)O; X4 = NCCCC[C@@H](CN1CCC[C@H]1C(=O)[*:2])N[*:1]; X2 = CN(CCCCC(Cc1ccccc1)C(=O)[*:2])[*:1]; X3 = CN(C(CCCc1ccccc1)C(=O)[*:2])[*:1]; d(β3hF) = N[C@@H](CC(=O)O)Cc1ccccc1; NMeCha = CN[C@@H](CC1CCCCC1)C(=O)O; NMeF = CN[C@@H](Cc1ccccc1)C(=O)O; NMeGABA = CN(CCCC(=O)[*:2])[*:1]; Cha = N[C@@H](CC1CCCCC1)C(=O)O; dCha = N[C@H](CC1CCCCC1)C(=O)O; NMeA = CN[C@@H](C)C(=O)O; Nle = CCCC[C@H](N)C(=O)O; Aze = O=C(O)[C@@H]1CCN1; Ahx = NCCCCCC(=O)O; βAla = NCCC(=O)O; Sar = CNCC(=O)O

Biological target: T1, C5a Receptor (Homo sapiens, UniProt P21730)
T1 construct: 2.5-25 ug/mL of purified PMNL membrane fragments; endogenous in cells; host or cells: PMNL (polymorphonuclear leukocytes), purified membrane fragments
T1 sequence (P21730 1-350): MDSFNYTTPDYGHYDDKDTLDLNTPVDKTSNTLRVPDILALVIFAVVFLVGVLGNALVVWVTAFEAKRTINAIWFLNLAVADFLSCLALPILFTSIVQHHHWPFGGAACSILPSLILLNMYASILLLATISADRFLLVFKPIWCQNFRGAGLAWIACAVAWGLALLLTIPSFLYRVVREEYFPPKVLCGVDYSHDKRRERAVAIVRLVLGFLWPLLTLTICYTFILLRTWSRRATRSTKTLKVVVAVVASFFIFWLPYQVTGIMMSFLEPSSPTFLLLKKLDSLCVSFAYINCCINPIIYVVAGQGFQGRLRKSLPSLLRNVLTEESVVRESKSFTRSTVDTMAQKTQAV
Experiment: Anaphylatoxin Receptor Binding Ki Determination (inhibition of 125I-C5a binding to PMNL membrane fragments)
Details: 0.03-1 nM 125I-C5a; 2.5-25 ug/mL purified PMNL membrane fragments; filtration; read-out: In vitro C5a Receptor Binding Potency Ki
Description: Free and membrane-bound ligand were separated by filtration.

Point of comparison: `CN[C@@H](Cc1ccccc1)C(=O)N[C@@H](CCCCN)C(=O)N(C)[C@@H](C)C(=O)N[C@H](CC1CCCCC1)C(=O)N[C@@H](CC1CCCCC1)C(=O)N[C@H](CCCNC(=N)N)C(=O)O` [Example 34, (N-Methyl)Phenylalanyl-Lysyl-(N-Methyl)Alanyl-{(2R)-2-Amino-3-cyclohexylpropanoyl}-{(2S)-2-Amino-3-cyclohexylpropanoyl}-DArginyl-OH] (H-[NMeF]K[NMeA][dCha][Cha][dR]-OH), Ki 0.034 µM. Against it:
- CN[C@@H](Cc1ccccc1)C(=O)N[C@@H](CCCCN)C(=O)N1CCC[C@H]1C(=O)N[C@H](CC1CCCCC1)C(=O)N[C@@H](Cc1ccccc1)C(C)N[C@@H](CCCNC(=N)N)C(=O)O (mixture of isomers) [Example 143, (N-Methyl)Phenylalanyl-Lysyl-Prolyl-{(2R)-2-Amino-3-cyclohexylpropanoyl}-Phenylalanyl-.PSI.{(R/S)CH(CH3)NH}-Arginyl-OH] — 120-fold higher, 4.2 µM
- CN[C@@H](Cc1ccccc1)C(=O)N[C@@H](CCCCN)C(=O)N1CCC[C@H]1C(=O)N[C@H](CC1CCCCC1)C(=O)N[C@H](CN[C@H](CCCNC(=N)N)C(=O)O)Cc1ccccc1 [Example 2, (N-Methyl)Phenylalanyl-Lysyl-Prolyl-{(2R)-2-Amino-3-cyclohexylpropanoyl}-Phenylalanyl-.PSI.(CH2 NH)-DArginyl-OH] (H-[NMeF]KP[dCha]-X1) — 29-fold higher, 1 µM
- CC(C)C[C@H](NC(=O)[C@H](CCC(N)=O)NC(=O)CCCCCNC(=O)[C@@H](N)Cc1c[nH]cn1)C(=O)NCC(=O)N[C@@H](CCCNC(=N)N)C(=O)O [Example 4, H-Histidyl-{6-Aminohexanoyl}-Glutaminyl-Leucyl-Glycyl-Arginyl-OH] (H-H[Ahx]QLGR-OH) — 5300-fold higher, 180 µM
- CC(C)C[C@H](NC(=O)[C@H](CC1CCCCC1)NC(=O)CCNC(=O)[C@H](CCCCN)NC(=O)[C@@H](N)Cc1ccccc1)C(=O)N[C@H](C)C(=O)N[C@@H](CCCNC(=N)N)C(=O)O [Example 7, H-Phenylalanyl-Lysyl-{3-Aminopropanoyl}-{(2S)-2-Amino-3-cyclohexylpropanoyl}-Leucyl-DAlanyl-Arginyl-OH] (H-FK[βAla][Cha]L[dA]R-OH) — 65-fold higher, 2.2 µM
- C[C@H](NC(=O)[C@H](CCCCN)NC(=O)[C@@H](N)Cc1ccccc1)C(=O)N[C@@H](CC1CCCCC1)C(=O)NCCCCCC(=O)N[C@@H](CCCNC(=N)N)C(=O)O [Example 10, H-Phenylalanyl-Lysyl-Alanyl-{(2S)-2-Amino-3-cyclohexylpropanoyl}-{6-Aminohexanoyl}-Arginyl-OH] (H-FKA[Cha][Ahx]R-OH) — 2500-fold higher, 85 µM
- CC(C)C[C@H](NC(=O)[C@H](CC1CCCCC1)NC(=O)[C@H](C)N(C)C(=O)[C@H](CCCCN)NC(=O)[C@@H](N)Cc1ccccc1)C(=O)N[C@H](C)C(=O)N[C@@H](CCCNC(=N)N)C(=O)O [Example 17, H-Phenylalanyl-Lysyl-(N-Methyl)Alanyl-{(2S)-2-Amino-3-cyclohexylpropanoyl}-Leucyl-DAlanyl-Arginyl-OH] (H-FK[NMeA][Cha]L[dA]R-OH) — 74-fold higher, 2.5 µM
- C[C@H](NC(=O)[C@H](CCCCN)NC(=O)[C@@H](N)Cc1ccccc1)C(=O)N[C@@H](CC1CCCCC1)C(=O)NCCC(=O)N[C@H](CCCNC(=N)N)C(=O)O [Example 19, H-Phenylalanyl-Lysyl-Alanyl-{(2S)-2-Amino-3-cyclohexylpropanoyl}-{3-Aminopropanoyl}-DArginyl-OH] (H-FKA[Cha][βAla][dR]-OH) — 3800-fold higher, 130 µM
- C[C@H](NC(=O)[C@H](CCCCN)NC(=O)[C@@H](N)Cc1ccccc1)C(=O)N[C@H](CC1CCCCC1)C(=O)N(C)[C@@H](CC1CCCCC1)C(=O)N[C@H](CCCNC(=N)N)C(=O)O [Example 40, H-Phenylalanyl-Lysyl-Alanyl-{(2R)-2-Amino-3-cyclohexylpropanoyl}-{(N-Methyl)(2S)-2-Amino-3cyclohexylpropanoyl}-DArginyl-OH] (H-FKA[dCha][NMeCha][dR]-OH) — 17-fold higher, 0.59 µM
- N=C(N)NCCC[C@@H](NC(=O)[C@H](CC1CCCCC1)NC(=O)[C@@H](CC1CCCCC1)NC(=O)[C@@H]1CCN1C(=O)[C@H](CCCCN)NC(=O)[C@@H](N)Cc1ccccc1)C(=O)O [Example 43, H-Phenylalanyl-Lysyl-{(2S)-Azetidine-2-carbonyl}-{(2R)-2-Amino-3-cyclohexylpropanoyl}-{(2S)-2-Amino-3-cyclohexylpropanoyl}-DArginyl-OH] (H-FK[Aze][dCha][Cha][dR]-OH) — within 1.5-fold, 0.023 µM
- CN(CC(=O)N[C@H](CC1CCCCC1)C(=O)N[C@@H](CC1CCCCC1)C(=O)N[C@H](CCCNC(=N)N)C(=O)O)C(=O)[C@H](CCCCN)NC(=O)[C@@H](N)Cc1ccccc1 [Example 56, H-Phenylalanyl-Lysyl-Sarcosyl-{(2R)-2-Amino-3-cyclohexylpropanoyl}-{(2S)-2-Amino-3-cyclohexylpropanoyl}-DArginyl-OH] (H-FK[Sar][dCha][Cha][dR]-OH) — 2.4-fold lower, 0.014 µM
- CN[C@@H](Cc1ccccc1)C(=O)N[C@@H](CCCCN)C(=O)N(C)[C@@H](Cc1ccccc1)C(=O)N[C@H](CC1CCCCC1)C(=O)N[C@@H](CC1CCCCC1)C(=O)N[C@H](CCCNC(=N)N)C(=O)O [Example 61, (N-Methyl)Phenylalanyl-Lysyl-(N-Methyl)Phenylalanyl-{(2R)-2-Amino-3-cyclohexylpropanoyl}-{(2S)-2-Amino-3-cyclohexylpropanoyl}-DArginyl-OH] (H-[NMeF]K[NMeF][dCha][Cha][dR]-OH) — 6.5-fold higher, 0.22 µM
- CCCC[C@H](NC(=O)[C@H](Cc1ccccc1)NC)C(=O)N(C)[C@@H](C)C(=O)N[C@H](CC1CCCCC1)C(=O)N[C@@H](CC1CCCCC1)C(=O)N[C@H](CCCNC(=N)N)C(=O)O [Example 62, (N-Methyl)Phenylalanyl-Norleucyl-(N-Methyl)Alanyl-{(2R)-2-Amino-3-cyclohexylpropanoyl}-{(2S)-2-Amino-3-cyclohexylpropanoyl}-DArginyl-OH] (H-[NMeF][Nle][NMeA][dCha][Cha][dR]-OH) — 7.6-fold higher, 0.26 µM
- CN[C@@H](Cc1ccccc1)C(=O)N[C@@H](CCCCN)CN1CCC[C@H]1C(=O)N[C@H](CC1CCCCC1)C(=O)N[C@@H](CC1CCCCC1)C(=O)N[C@H](CCCNC(=N)N)C(=O)O [Example 79, (N-Methyl)Phenylalanyl-Lysyl-.PSI.{CH2 NH}-Prolyl-{(2R)-2-Amino-3-cyclohexylpropanoyl}-{(2S)-2-Amino-3-cyclohexylpropanoyl}-DArginyl-OH] (H-[NMeF][X4][dCha][Cha][dR]-OH) — 430-fold higher, 14.5 µM
- CN[C@@H](Cc1ccccc1)C(=O)N[C@@H](CCCCN)C(=O)N1CCC[C@H]1CN[C@H](CC1CCCCC1)C(=O)N[C@@H](Cc1ccccc1)C(=O)N[C@H](CCCNC(=N)N)C(=O)O [Example 103] — 11-fold higher, 0.36 µM
- CN[C@@H](Cc1ccccc1)C(=O)N[C@@H](CCCCN)C(=O)N(C)CCCC(=O)N[C@@H](Cc1ccccc1)C(=O)N[C@H](CCCNC(=N)N)C(=O)O [Example 121, (N-Methyl)Phenylalanyl-Lysyl-{4-(Methylamino)butanoyl}-Phenylalanyl-DArginyl-OH] (H-[NMeF]K[NMeGABA]F[dR]-OH) — 620-fold higher, 21 µM
- CN[C@@H](Cc1ccccc1)C(=O)N[C@@H](CCCCN)C(=O)N(C)CCCCC(Cc1ccccc1)C(=O)N[C@@H](Cc1ccccc1)C(=O)N[C@H](CCCNC(=N)N)C(=O)O (stereo partly shown) [Example 134] (H-[NMeF]K[X2]F[dR]-OH) — 200-fold higher, 6.8 µM
- CN[C@@H](Cc1ccccc1)C(=O)N[C@@H](CCCCN)C(=O)N(C)C(CCCc1ccccc1)C(=O)N[C@H](CC1CCCCC1)C(=O)N[C@@H](Cc1ccccc1)C(=O)N[C@H](CCCNC(=N)N)C(=O)O (stereo partly drawn) [Example 156, (N-Methyl)Phenylalanyl-Lysyl-{(2R/S)-2-Methylamino-5-phenylpentanoyl}-{(2R)-2-Amino-3-cyclohexylpropanoyl}-Phenylalanyl-DArginyl-OH] (H-[NMeF]K[X3][dCha]F[dR]-OH) — 19-fold higher, 0.66 µM
- CN[C@@H](Cc1ccccc1)C(=O)N[C@@H](CCCCN)C(=O)N1CCC[C@H]1C(=O)N[C@H](CC1CCCCC1)C(=O)N[C@@H](Cc1ccccc1)C(=O)N[C@@H](CC(=O)O)Cc1ccccc1 [Example 170, (N-Methyl)Phenylalanyl-Lysyl-Prolyl-{(2R)-2-Amino-3-cyclohexylpropanoyl}-Phenylalanyl-{(3R)-Amino-4-phenylbutanoic acid}] (H-[NMeF]KP[dCha]F[d(β3hF)]-OH) — 76-fold higher, 2.6 µM
